One assay has as its target T1, human recombinant HDAC1 (Homo sapiens, UniProt Q13547).
T1 construct: purchased Enzo Life Science BML-SE456
The assay can be described thus: HDAC1 enzyme activity inhibition test (HDAC Fluorometric Drug Discovery Kit). Conditions: 30° C., 60 minutes, 10 μM substrate. Type of assay: biochemical. On the procedure:
(§1) The following experiment was conducted to confirm the HDAC6 selectivity of the compound represented by Chemical Formula I of the present invention through the HDAC1 and HDAC6 enzyme activity inhibition test.
(§2) HDAC enzyme activity was measured using HDAC Fluorometric Drug Discovery Kit (BML-AK511, 516) manufactured by Enzo Life Science. For the HDAC1 enzyme activity test, human recombinant HDAC1 (BML-SE456) was used as an enzyme source and Fluor de Lys-®-″SIRT1 (BNL-KI177) was used as a substrate. The 5-fold diluted compound was dispensed in a 96-well plate, 0.3 μg of enzyme and 10 μM substrate were added to each well and reacted at 30° C. for 60 minutes, and Fluor de Lys® Developer II(BML-KI176) was added and reacted for 30 minutes to complete the reaction. Then, the fluorescence value (Ex 360, Em 460) was measured using a multiplate reader (Flexstation 3, Molecular Device). The HDAC6 enzyme was tested using the same protocol as the HDAC1 enzyme activity test method employing human recombinant HDAC6 (382180) from Calbiochem. For the final result, each […] value was calculated using the GraphPad Prism 4.0 program.

The target of the next assay is T2, human recombinant HDAC6 (Homo sapiens, UniProt Q9UBN7).
T2 construct: purchased Calbiochem 382180
T2 sequence (Q9UBN7 1-1215): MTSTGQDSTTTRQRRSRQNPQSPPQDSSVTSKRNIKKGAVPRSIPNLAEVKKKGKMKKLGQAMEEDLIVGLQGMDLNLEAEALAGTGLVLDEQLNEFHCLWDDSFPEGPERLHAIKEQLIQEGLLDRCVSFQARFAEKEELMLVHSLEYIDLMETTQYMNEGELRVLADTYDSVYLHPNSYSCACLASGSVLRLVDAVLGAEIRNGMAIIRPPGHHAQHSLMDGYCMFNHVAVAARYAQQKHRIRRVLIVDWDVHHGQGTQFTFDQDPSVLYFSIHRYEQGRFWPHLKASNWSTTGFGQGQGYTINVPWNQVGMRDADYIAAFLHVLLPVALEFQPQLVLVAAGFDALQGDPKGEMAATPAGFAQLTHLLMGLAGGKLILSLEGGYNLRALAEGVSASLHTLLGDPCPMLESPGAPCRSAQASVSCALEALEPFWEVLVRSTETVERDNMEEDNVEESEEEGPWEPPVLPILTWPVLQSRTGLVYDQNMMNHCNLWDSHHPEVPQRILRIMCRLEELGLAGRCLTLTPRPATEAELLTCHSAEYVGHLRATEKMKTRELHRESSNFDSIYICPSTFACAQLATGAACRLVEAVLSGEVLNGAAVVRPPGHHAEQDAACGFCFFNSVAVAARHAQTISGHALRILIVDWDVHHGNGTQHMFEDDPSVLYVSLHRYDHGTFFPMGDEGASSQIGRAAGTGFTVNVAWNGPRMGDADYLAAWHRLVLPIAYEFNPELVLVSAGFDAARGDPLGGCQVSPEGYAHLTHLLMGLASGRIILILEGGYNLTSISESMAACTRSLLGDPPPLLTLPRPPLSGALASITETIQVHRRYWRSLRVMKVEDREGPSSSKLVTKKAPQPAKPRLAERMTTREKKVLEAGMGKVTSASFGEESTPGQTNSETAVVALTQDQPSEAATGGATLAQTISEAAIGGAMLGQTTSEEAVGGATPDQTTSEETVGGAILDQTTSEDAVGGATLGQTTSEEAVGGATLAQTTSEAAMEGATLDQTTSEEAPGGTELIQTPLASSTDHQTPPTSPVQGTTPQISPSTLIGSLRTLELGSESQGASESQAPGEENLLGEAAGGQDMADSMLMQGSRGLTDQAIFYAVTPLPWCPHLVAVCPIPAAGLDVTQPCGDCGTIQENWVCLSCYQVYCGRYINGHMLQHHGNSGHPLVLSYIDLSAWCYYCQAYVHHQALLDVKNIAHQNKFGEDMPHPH
Briefly: HDAC6 enzyme activity inhibition test (HDAC Fluorometric Drug Discovery Kit). Type of assay: biochemical. As to conditions: for HDAC6 selectivity (fold): HDAC6 over HDAC1; for IC50: human recombinant HDAC6, same protocol as HDAC1. On the procedure: as §1, §2

As a reminder, the IC50 is the point on the concentration scale where inhibition reaches its midpoint.

T1 sequence (Q13547 whole entry): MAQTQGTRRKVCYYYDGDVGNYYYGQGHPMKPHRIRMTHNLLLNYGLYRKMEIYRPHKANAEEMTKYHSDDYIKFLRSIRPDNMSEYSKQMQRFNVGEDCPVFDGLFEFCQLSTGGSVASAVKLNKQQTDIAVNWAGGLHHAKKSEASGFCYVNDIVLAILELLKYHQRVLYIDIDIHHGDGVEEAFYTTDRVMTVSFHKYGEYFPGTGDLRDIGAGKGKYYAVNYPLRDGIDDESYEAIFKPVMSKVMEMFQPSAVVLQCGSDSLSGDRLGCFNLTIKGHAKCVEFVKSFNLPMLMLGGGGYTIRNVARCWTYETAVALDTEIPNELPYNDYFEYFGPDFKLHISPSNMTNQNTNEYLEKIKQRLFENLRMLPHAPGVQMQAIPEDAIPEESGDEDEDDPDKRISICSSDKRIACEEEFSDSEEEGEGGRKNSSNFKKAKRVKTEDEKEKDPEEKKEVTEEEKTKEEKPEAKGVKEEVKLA

On to `O=c1oc(-c2ccccc2)nn1Cc1ccc(-c2nnc(C(F)F)o2)cn1` [Compound 1, 3-((5-(5-(difluoromethyl)-1,3,4-oxadiazol-2-yl)pyridin-2-yl)methyl)-5-phenyl-1,3,4-oxadiazol-2 (3H)-one], for which the IC50 on human recombinant HDAC1 was more than 50000 nM; on human recombinant HDAC6 it was 120 nM. Also, the “HDAC6 selectivity (fold)” value at human recombinant HDAC6 turned out to be 416 fold.

As for `O=c1oc(-c2ccc(CN3CCCC3)cc2)nn1Cc1ccc(-c2nnc(C(F)F)o2)cn1` [Compound 2, 3-((5-(5-(difluoromethyl)-1,3,4-oxadiazol-2-yl)pyridin-2-yl)methyl)-5-(4-(pyrrolidin-1-ylmethyl)phenyl)-1,3,4-oxadiazol-2(3H)-one], the IC50 on human recombinant HDAC1 is more than 50000 nM. Further, on human recombinant HDAC6, the “HDAC6 selectivity (fold)” value was found to be 506 fold and the 50% inhibitory concentration (IC50) is 98.8 nM.

For the compound `O=c1oc(-c2ccc3[nH]ccc3c2)nn1Cc1ccc(-c2nnc(C(F)F)o2)cn1` [Compound 3, 3-[[5-[5-(difluoromethyl)-1,3,4-oxadiazol-2-yl]-2-pyridyl]methyl]-5-(1H-indol-5-yl)-1,3,4-oxadiazol-2-one], at human recombinant HDAC1, the concentration for half-maximal inhibition (IC50) was more than 50000 nM. At human recombinant HDAC6, the “HDAC6 selectivity (fold)” value turned out to be 3497 fold and the IC50 was determined as 14.3 nM.

For the compound `CC1CCN(Cc2ccc(-c3nn(Cc4ccc(-c5nnc(C(F)F)o5)cn4)c(=O)o3)c(F)c2)CC1` [Compound 4, 3-[[5-[5-(difluoromethyl)-1,3,4-oxadiazol-2-yl]-2-pyridyl]methyl]-5-[2-fluoro-4-[(4-methyl-1-piperidyl)methyl]phenyl]-1,3,4-oxadiazol-2-one], the results for the IC50 on human recombinant HDAC1 and at human recombinant HDAC6 were more than 50000 nM and 84.1 nM, respectively. For the same compound, on human recombinant HDAC6, the “HDAC6 selectivity (fold)” value was found to be 595 fold.

With `O=c1oc(-c2cccs2)nn1Cc1ccc(-c2nnc(C(F)F)o2)cn1` [Compound 5, 3-[[5-[5-(difluoromethyl)-1,3,4-oxadiazol-2-yl]-2-pyridyl]methyl]-5-(2-thienyl)-1,3,4-oxadiazol-2-one], the figures for the IC50 at human recombinant HDAC1 and at human recombinant HDAC6 were more than 50000 nM and 84.9 nM, respectively. The “HDAC6 selectivity (fold)” value at human recombinant HDAC6 stood at 589 fold.

For the compound `CC(C)N1CCN(c2cccc(-c3nn(Cc4ccc(-c5nnc(C(F)F)o5)cn4)c(=O)o3)n2)CC1` [Compound 6, 3-[[5-[5-(difluoromethyl)-1,3,4-oxadiazol-2-yl]-2-pyridyl]methyl]-5-[6-(4-isopropylpiperazin-1-yl)-2-pyridyl]-1,3,4-oxadiazol-2-one], the half-inhibitory concentration (IC50) at human recombinant HDAC1 was more than 50000 nM. For the same compound, at human recombinant HDAC6, the “HDAC6 selectivity (fold)” value is recorded as 1078 fold and the half-inhibitory concentration (IC50) is 46.4 nM.

As to `O=c1oc(-c2cccc(N3CCN(C4COC4)CC3)n2)nn1Cc1ccc(-c2nnc(C(F)F)o2)cn1` [Compound 7, 3-[[5-[5-(difluoromethyl)-1,3,4-oxadiazol-2-yl]-2-pyridyl]methyl]-5-[6-[4-(oxetane-3-yl)piperazin-1-yl]-2-pyridyl]-1,3,4-oxadiazol-2-one], the IC50 on human recombinant HDAC1 was more than 50000 nM. Further, on human recombinant HDAC6, the “HDAC6 selectivity (fold)” value was determined as 600 fold and the IC50 amounted to 83.3 nM.

On to `CN1CCC(c2cccc(-c3nn(Cc4ccc(-c5nnc(C(F)F)o5)cn4)c(=O)o3)c2)CC1` [Compound 8, 3-[[5-[5-(difluoromethyl)-1,3,4-oxadiazol-2-yl]-2-pyridyl]methyl]-5-[3-(1-methyl-4-piperidyl)phenyl]-1,3,4-oxadiazol-2-one], for which the IC50 on human recombinant HDAC1 is more than 50000 nM. Besides, at human recombinant HDAC6, the “HDAC6 selectivity (fold)” value is 546 fold and the IC50 amounted to 91.6 nM.

In the case of `O=c1oc(-c2cccc(C3CCN(C4COC4)CC3)c2)nn1Cc1ccc(-c2nnc(C(F)F)o2)cn1` [Compound 9, 3-[[5-[5-(difluoromethyl)-1,3,4-oxadiazol-2-yl]-2-pyridyl]methyl]-5-[3-[1-(oxetane-3-yl)-4-piperidyl]phenyl]-1,3,4-oxadiazol-2-one], the half-maximal inhibitory concentration (IC50) at human recombinant HDAC1 was more than 50000 nM. For the same compound, at human recombinant HDAC6, the “HDAC6 selectivity (fold)” value is 585 fold and the IC50 was 85.5 nM.
